Data taken from ChEMBL document CHEMBL5528080, “Discovery of RORγ Allosteric Fluorescent Probes and Their Application: Fluorescence Polarization, Screening, and Bioimaging” (J Med Chem, 2024).

Legend:
Assay in all cases: biochemical
[1] = target: T1, Nuclear receptor ROR-gamma (Homo sapiens, UniProt P51449)
T1 sequence (P51449 whole entry): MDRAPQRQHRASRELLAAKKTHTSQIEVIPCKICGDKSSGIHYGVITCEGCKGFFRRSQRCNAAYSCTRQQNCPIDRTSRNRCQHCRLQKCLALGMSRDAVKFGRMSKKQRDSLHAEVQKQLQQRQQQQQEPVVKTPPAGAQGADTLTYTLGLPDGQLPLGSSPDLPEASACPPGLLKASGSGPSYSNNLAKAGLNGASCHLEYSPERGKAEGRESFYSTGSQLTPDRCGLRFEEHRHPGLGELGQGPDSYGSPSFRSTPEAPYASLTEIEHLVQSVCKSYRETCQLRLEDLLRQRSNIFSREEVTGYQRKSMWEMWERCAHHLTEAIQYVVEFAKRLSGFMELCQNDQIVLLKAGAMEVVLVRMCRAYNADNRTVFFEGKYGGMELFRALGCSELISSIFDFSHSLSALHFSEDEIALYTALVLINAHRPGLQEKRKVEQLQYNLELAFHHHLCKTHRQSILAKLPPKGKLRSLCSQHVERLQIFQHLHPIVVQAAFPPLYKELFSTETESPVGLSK
Description: Allosteric inhibition of N-terminal his6-tagged human recombinant RORgamma LBD (261 to 518 residues) expressed in Sf9 insect cells assessed as inhibition constant incubated for 30 mins by fluorescence polarization assay

[2] = target: T1, Nuclear receptor ROR-gamma; remark: listed apart in the source
Description: Allosteric inhibition of N-terminal his6-tagged human recombinant RORgamma LBD (261 to 518 residues) expressed in Sf9 insect cells incubated for 30 mins by fluorescence polarization assay

[3] = target: T1, Nuclear receptor ROR-gamma; remark: listed apart in the source
Description: Binding affinity to N-terminal his6-tagged human recombinant RORgamma LBD (261 to 518 residues) expressed in Sf9 insect cells assessed as dissociation constant incubated for 30 mins by fluorescence polarization assay

[4] = target: T1, Nuclear receptor ROR-gamma; remark: listed apart in the source
Description: Binding affinity to N-terminal his6-tagged human recombinant RORgamma LBD (261 to 518 residues) expressed in Sf9 insect cells assessed as dissociation constant by SPR analysis

SMILES	Ki [1] [µM]	IC50 [2] [µM]	Kd [3] [µM]	Kd [4] [µM]
O=C(O)c1ccc(-n2cc(C(=O)c3ccccc3)c3ccccc32)s1	102	19.3		
Cc1csc(-n2cc(C(=O)c3c(Cl)cccc3Cl)c3ccccc32)c1		> 1000		
Cc1ccccc1C(=O)c1cn(-c2ccc(C(=O)O)s2)c2ccccc12	17.6	33		
Cc1cc(-n2cc(C(=O)c3c(Cl)cccc3Cl)c3ccccc32)sc1C(=O)O	1.7	3.1		
O=C(O)c1ccc(-n2cc(C(=O)c3ccc(Cl)cc3)c3ccccc32)s1	21.3	39.9		
O=C(O)c1ccc(-n2cc(C(=O)c3cccc(Cl)c3)c3ccccc32)s1	15.2	28.5		
O=C(O)c1ccc(-c2nn(C(=O)c3c(Cl)cccc3C(F)(F)F)c3cc(C(=O)NCCOCCOCCNC(=S)Nc4ccc5c(c4)C(=O)OC54c5ccc(O)cc5Oc5cc(O)ccc54)ccc23)cc1			0.0517	0.28
Cc1ccc(C(=O)c2cn(-c3ccc(C(=O)O)s3)c3ccccc23)cc1	42.7	79.9		
Cc1cccc(C(=O)c2cn(-c3ccc(C(=O)O)s3)c3ccccc23)c1	79.8	149		
O=C(O)c1ccc(-c2nn(C(=O)c3ccccc3)c3ccccc23)cc1	1.11			
O=C(O)c1ccc(-n2cc(C(=O)c3c(Cl)cccc3Cl)c3ccccc32)cc1	0.005	0.009		
O=C(O)c1ccc(-n2cc(C(=O)c3ccccc3Cl)c3ccccc32)s1	7.2	13.5		
O=C(O)c1ccc(-n2cc(C(=O)c3c(Cl)cccc3C(F)(F)F)c3ccccc32)s1	0.91	1.7		
O=C(O)c1ccc(-n2cc(C(=O)c3c(Cl)cccc3Cl)c3ccccc32)s1	0.51	0.95		
